This note sets out measurements from EP0441832B1, “COMPOSITION AND TREATMENT WITH BIOLOGICALLY ACTIVE PEPTIDES AND CERTAIN ANIONS” (THE CHILDREN'S HOSPITAL OF PHILADELPHIA, priority 1988, dated 1990).

Common to all, as to type: cell-based
One data set has as its system ENTEROBACTER CLOACAE. The protocol:
(§1) Approximately 1,000 bacteria were seeded into about 200 ul of trypticase soy broth. Either magainin 2 carboxy terminal amide, PGLa, or ALSKALSK ALSKALSKALSKALSK (Z-44) were added in increasing concentrations in the absence (Panel A) or presence (Panel B) of 50 mM NaF.

The subject of a further data set is PSEUDOMONAS AERUGINOSA
The conditions noted are these: Panel A: Absence of NaF; approx. 1,000 bacteria in about 200 ul trypticase soy broth. The protocol: as §1

In another data set the test system is E. cloacae. The experiment in a line: Killing of bacteria: 15 min incubation in trypticase soy broth, then plating for viable organisms. The method, then:
If 10⁷ E. cloacae organisms are inoculated into 1 ml of TSB in the presence of 60 ug/ml of MGN2, about 10⁶ bacteria are found to be viable on plating. […] The effective killing power of this antibiotic at a given concentration has been potentiated over 1 million-fold by the addition of fluoride.
LEGEND: Organisms were incubated in a volume of 1 ml in either trypticase soy broth alone or containing substances noted for 15 min at 37 °C. An aliquot was then diluted and plated to determine number of viable organisms.

Setting [1] is: peptide 60ug/ml + NaF 25 mM, 10⁷ organisms in 1 ml TSB, 15 min at 37 C.

Where two headings read alike, the source gives them in different places. Ends that are not written are not given here.

For the substance GIGKFLHSAKKFGKAFVGEIMNS-NH2 [MGN2], the “MINIMAL INHIBITORY CONCENTRATION” value with ENTEROBACTER CLOACAE is given as “exceeded 500 ug/ml”; with ENTEROBACTER CLOACAE (Panel A: Absence of NaF, approx. 1,000 bacteria in about 200 ul trypticase soy broth, listed as MGN2 (Magainin II)), “MGN2 (Magainin II) >500 ug/ml”; in the data set with PSEUDOMONAS AERUGINOSA, “MGN 2 250-500 ug/ml”. Further, the “bacteria viable on plating” value in the data set with E. cloacae (60 ug/ml peptide + 50 mM NaF, 10⁷ organisms in 1 ml TSB) is given as “all bacteria are killed”. For the same substance, the “potentiation of effective killing power by the addition of fluoride” value in the data set on E. cloacae (60 ug/ml peptide, with vs without NaF) is reported as “over 1 million”. Besides, the CFU in the data set with E. cloacae (setting [1]) is given as 0. The “EOP (% viable)” value came out at 0% with E. cloacae (setting [1]) and 90% in the data set with E. cloacae (peptide 60ug/ml alone, 10⁷ organisms in 1 ml TSB, 15 min at 37 C).

For the substance sodium fluoride [NaF], the “EOP (% viable)” value with E. cloacae (NaF 25mM alone, 10⁷ organisms in 1 ml TSB, 15 min at 37 C) was 100%.
